Reference: patent US20260124214A1, “HETEROCYCLIC COMPOUNDS FOR USE IN THE TREATMENT OF CANCER” (ARTIOS PHARMA LIMITED, priority 2021, published 2026)
Structures can show the parent of a compound that is named as a salt.

Target: T1, Human Polθ polymerase domain (aa1820-2590) (Homo sapiens, UniProt O75417)
T1 construct: Human Polθ polymerase domain (aa1820-2590) was expressed in E. Coli; made in house; host or cells: E. coli
T1 sequence (O75417 1820-2590): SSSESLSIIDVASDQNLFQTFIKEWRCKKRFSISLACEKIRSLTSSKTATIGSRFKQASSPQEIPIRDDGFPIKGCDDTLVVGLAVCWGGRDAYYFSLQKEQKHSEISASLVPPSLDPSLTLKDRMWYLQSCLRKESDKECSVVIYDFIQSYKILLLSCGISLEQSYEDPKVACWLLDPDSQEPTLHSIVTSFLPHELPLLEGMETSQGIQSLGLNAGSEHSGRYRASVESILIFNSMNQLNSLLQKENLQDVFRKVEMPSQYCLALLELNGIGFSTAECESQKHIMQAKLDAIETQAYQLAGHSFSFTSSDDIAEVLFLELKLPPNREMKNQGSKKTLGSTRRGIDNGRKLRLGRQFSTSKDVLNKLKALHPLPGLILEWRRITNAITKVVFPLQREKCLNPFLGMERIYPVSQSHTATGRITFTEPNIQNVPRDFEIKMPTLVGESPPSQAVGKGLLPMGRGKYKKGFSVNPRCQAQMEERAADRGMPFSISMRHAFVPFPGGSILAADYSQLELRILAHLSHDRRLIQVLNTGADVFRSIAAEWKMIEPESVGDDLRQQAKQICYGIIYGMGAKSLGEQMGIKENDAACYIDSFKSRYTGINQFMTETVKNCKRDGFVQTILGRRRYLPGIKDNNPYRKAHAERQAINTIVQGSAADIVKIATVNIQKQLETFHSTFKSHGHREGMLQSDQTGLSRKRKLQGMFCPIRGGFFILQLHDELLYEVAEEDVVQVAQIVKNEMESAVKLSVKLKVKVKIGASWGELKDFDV
Assay: Polθ Polymerase Domain WT KI Assay (PicoGreen)
Assay type: biochemical
Details: 100 nM DNA substrate, 0.156 nM Polθ, initial rates vs inhibitor concentration
Outline: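 E. coli-expressed human Polθ polymerase domain (aa1820-2590) on annealed DNA II Short/Long primer-template (1.2:1), in 25 mM Tris pH 7.5, NaCl, 5% glycerol, 0.01% Triton X-100, 0.1 mg/ml BSA, 1 mM DTT, 1% DMSO. EDTA-quenched timepoints to 180 min, PicoGreen fluorescence. Initial rates vs inhibitor concentration fitted four-parameter for KI.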

Structure (SMILES)	Ki
Cc1cc(C(F)(F)F)cc(N2C(=O)C[C@@H]3CN(CCN4CC[C@H](C(=O)N(C)C)C4)c4c(C)cccc4N(C)C(=O)[C@H]32)n1 [Example 72, (S)-1-(2-((3aR,11aS)-6,10-Dimethyl-1-(6-methyl-4-(trifluoromethyl)pyridin-2-yl)-2,11-dioxo-1,2,3,3a,4,10,11,11a-octahydro-5H-benzo[b]pyrrolo[2,3-f][1,4]diazocin-5-yl)ethyl)-N,N-dimethylpyrrolidine-3-carboxamide]	0.969 nM
Cc1cc(C(F)(F)F)cc(N2C(=O)C[C@@H]3CN(CCN4CC[C@@H](C(=O)N(C)C)C4)c4c(C)cccc4N(C)C(=O)[C@H]32)n1 [Example 73, (R)-1-(2-((3aR,11aS)-6,10-Dimethyl-1-(6-methyl-4-(trifluoromethyl)pyridin-2-yl)-2,11-dioxo-1,2,3,3a,4,10,11,11a-octahydro-5H-benzo[b]pyrrolo[2,3-f][1,4]diazocin-5-yl)ethyl)-N,N-dimethylpyrrolidine-3-carboxamide]	8.12 nM
CC(=O)N1CCN(CCN2C[C@H]3CC(=O)N(c4cc(C(F)(F)F)cc(C)n4)[C@@H]3C(=O)N(C)c3cccc(C)c32)[C@@H](C)C1 [Example 74, (3aR,11aS)-5-(2-((S)-4-Acetyl-2-methylpiperazin-1-yl)ethyl)-6,10-dimethyl-1-(6-methyl-4-(trifluoromethyl)pyridin-2-yl)-1,3a,4,5,10,11a-hexahydro-2H-benzo[b]pyrrolo[2,3-f][1,4]diazocine-2,11(3H)-dione]	1.21 nM
Cc1cc(C(F)(F)F)cc(N2C(=O)C[C@@H]3CN(CCN4CCN5C(=O)COC[C@H]5C4)c4c(C)cccc4N(C)C(=O)[C@H]32)n1 [Example 75, (3aR,11aS)-6,10-Dimethyl-1-(6-methyl-4-(trifluoromethyl)pyridin-2-yl)-5-(2-((R)-4-oxohexahydropyrazino[2,1-c][1,4]oxazin-8(1H)-yl)ethyl)-1,3a,4,5,10,11a-hexahydro-2H-benzo[b]pyrrolo[2,3-f][1,4]diazocine-2,11(3H)-dione]	1.81 nM
Cc1cc(C(F)(F)F)cc(N2C(=O)C[C@@H]3CN(Cc4cc5n(n4)CCN(C)C5)c4c(Cl)cccc4N(C)C(=O)[C@H]32)n1 [Example 76, (3aR,11aS)-6-Chloro-10-methyl-5-((5-methyl-4,5,6,7-tetrahydropyrazolo[1,5-a]pyrazin-2-yl)methyl)-1-(6-methyl-4-(trifluoromethyl)pyridin-2-yl)-1,3a,4,5,10,11a-hexahydro-2H-benzo[b]pyrrolo[2,3-f][1,4]diazocine-2,11(3H)-dione]	0.458 nM
Cc1cc(C(F)(F)F)cc(N2C(=O)C[C@@H]3CN(CC4CCNCC4)c4c(F)cccc4N(C)C(=O)[C@H]32)n1 [Example 77, (3aR,11aS)-6-Fluoro-10-methyl-1-(6-methyl-4-(trifluoromethyl)pyridin-2-yl)-5-(piperidin-4-ylmethyl)-1,3a,4,5,10,11a-hexahydro-2H-benzo[b]pyrrolo[2,3-f][1,4]diazocine-2,11(3H)-dione Hydrochloride]	11.3 nM
Cc1cc(C(F)(F)F)cc(N2C(=O)C[C@@H]3CN(CC4CCNCC4)c4c(Cl)cccc4N(C)C(=O)[C@H]32)n1 [Example 78, (3aR,11aS)-6-Chloro-10-methyl-1-(6-methyl-4-(trifluoromethyl)pyridin-2-yl)-5-(piperidin-4-ylmethyl)-1,3a,4,5,10,11a-hexahydro-2H-benzo[b]pyrrolo[2,3-f][1,4]diazocine-2,11(3H)-dione]	1.1 nM
Cc1cc(C(F)(F)F)cc(N2C(=O)C[C@@H]3CN(CC4CCN(C)CC4)c4c(C)cccc4N(C)C(=O)[C@H]32)n1 [Example 79, (3aR,11aS)-6,10-Dimethyl-1-(6-methyl-4-(trifluoromethyl)pyridin-2-yl)-5-((1-methylpiperidin-4-yl)methyl)-1,3a,4,5,10,11a-hexahydro-2H-benzo[b]pyrrolo[2,3-f][1,4]diazocine-2,11(3H)-dione]	1.36 nM
